“Also recorded” adds a separate entry of the source. Like-named read-outs stand apart in the source and are kept apart here.
Legend:
[1] = test system: CFPAC cells; experiment: Iodide efflux protocol in CFPAC cells; format: cell-based, human; conditions: for iodide (anion) efflux: CF pancreatic ductular cells (CFPAC), FIG. 1
Source text: (§1) The iodide efflux protocol is a conventional test for the existence of anion permeability pathways, including both CFTR (cAMP-activated) and non-CFTR permeability pathways (e.g., Ca^2+-activated Cl^− transport). […] Ionomycin, a Ca^2+ ionophore, is known to activate non-CFTR-type anion efflux pathways in CFPAC cells by increasing intracellular Ca^2+.
(§2) Epithelial cells in the pancreatic ducts, lung, and colon secrete fluid and electrolytes into the pancreatic ductular lumen, airways and intestinal lumen, respectively. The inability to secrete anions in response to a cAMP-dependent agonist such as forskolin is a hallmark of the CF phenotype. […] Methods: Iodide efflux. Iodide efflux was performed as previously described (Venglarik et al., Am. J. Physiol. 259:C358-C364, 1990, and Drumm et al., Cell 62:1227-1233, 1990) Cells were grown on […] culture dishes, and effluxes were performed when the cells were 80-100% confluent using a phosphate buffered Ringer's solution. Cells were loaded with ^125I (2-5 μCi/ml) for 30 minutes and then washed with PBS to remove extracellular ^125I. Efflux was detected by measuring the radioactivity in the extracellular solution which was changed every 15 seconds. At specific points, compounds were added to the cells. Increases in the rate of efflux after addition of a compound indicates the activation of an anion permeability pathway.

[2] = test system: primary airway cells taken from a CF patient; experiment: Iodide efflux protocol in primary airway cells taken from a CF patient; format: cell-based, human; conditions: FIG. 2
Protocol: as §2

[3] = test system: T84 cells; experiment: Iodide efflux protocol in T84 colonic epithelial cells; format: cell-based, human; conditions: T84 cells expressing high levels of CFTR
Source text: as §1, §2

[4] = test system: CFPAC cells; experiment: Cell proliferation assay (Cell titer 96 kit); format: cell-based, human
Protocol: (§3) Proliferation was measured as in Hughes et al., Tumor specific killing with high bystander toxicity using the human tyrosinase promoter to express the E. coli PNP gene, Cancer Research 55: 3339-3345, 1995 and Parker et al., In vivo gene therapy of cancer with E. coli purine nucleoside phosphorylase, Human Gene Therapy, 1997 (in press) using a commercially available kit (Cell titer 96 kit, Promega) and carried out according to manufacturer's protocol. 20 μm 2931 activates Cl^− secretion in CF cells within 5 minutes. […] (FIG. 3A) cAMP levels were tested using the cAMP Immunoassay kit (Cayman) according to manufacturer's protocol.

[5] = test system: cellular cAMP; experiment: cAMP Immunoassay kit, cellular cAMP levels; format: cell-based, human; conditions: same conditions that stimulate anion transport, FIG. 3
Protocol: as §3

[6] = test system: CFPAC-1 cell monolayers; experiment: Short circuit current (ISC) in CFPAC-1 cell monolayers, Ussing chamber; format: cell-based, human
Protocol: FIG 4. Cl^- secretion in CFPAC-1 cells. CFPAC-1 cell monolayers were grown to confluency on permeable supports (Millipore) for 10 days. Filters were mounted in an Ussing chamber, and short circuit current measurement was carried out as previously described ([…] and Dawson, Am. J. Physiol. 251:[…]-[…], 1986). […] The compounds were screened using different concentrations of drugs and adding them to alternate surfaces of the filters (mucosal; serosal; mucosal and serosal). The effects of forskolin (10 μM), UTP (100 μM) CPX (100 μm) and duramycin (5 μm) were also studied. […] Explants of CF nasal polyps (primary airway epithelial cells) and control, non-CF colonic epithelial cells (T84) containing wild-type CFTR were also studied. […] In other words, these experiments raise the possibility that Cl^- secretion effects of drugs such as adenosine, milrinone, IBMX, or forskolin might be increased by compounds employed in the present invention by a conjoint therapy treatment. […] The ISC occurs after mucosal, but not serosal addition of the compound.

[7] = test system: T84 colonic epithelial cells; experiment: Short circuit current (ISC) in T84 colonic epithelial cell monolayers; format: cell-based, human; conditions: with 10 μM forskolin
Protocol: FIG 4. Cl^- secretion in CFPAC-1 cells. CFPAC-1 cell monolayers were grown to confluency on permeable supports (Millipore) for 10 days. Filters were mounted in an Ussing chamber, and short circuit current measurement was carried out as previously described ([…] and Dawson, Am. J. Physiol. 251:[…]-[…], 1986). Filters were bathed in Ringer's solution (in mM: 145 Na^+, 5 K^+, 124.8 Cl^-, 1.2 Ca^2+, 1.2 Mg^2+, 25 HCO3-, 4.2 PO4, 10 glucose; pH=7.4) on the serosal surface and in a 6 mM Cl^- Ringer's solution (118.8 mM of Cl^- was replaced by the impermeant anion gluconate) on the mucosal surface. The compounds were screened using different concentrations of drugs and adding them to alternate surfaces of the filters (mucosal; serosal; mucosal and serosal). The effects of forskolin (10 μM), UTP (100 μM) CPX (100 μm) and duramycin (5 μm) were also studied. […] Explants of CF nasal polyps (primary airway epithelial cells) and control, non-CF colonic epithelial cells (T84) containing wild-type CFTR were also studied. […] In other words, these experiments raise the possibility that Cl^- secretion effects of drugs such as adenosine, milrinone, IBMX, or forskolin might be increased by compounds employed in the present invention by a conjoint therapy treatment. […] The ISC occurs after mucosal, but not serosal addition of the compound.

[8] = test system: mouse intestine; experiment: ISC across mouse intestine (colon sections) in Ussing chambers
Protocol: Small sections of mouse colon from both wild-type and CF knockout mice were mounted in Ussing chambers, and ISC measurements were recorded as described above. Both mucosal and serosal surfaces were bathed in regular Ringer's solution, and TTX (1.54×10^−3 μM) was added to the serosal side of the tissue. After a steady-state had been obtained, amiloride (10^−4 M) was added to the mucosal surface. Both sides were then bathed with regular Ringer's. A Cl gradient was established by bathing the mucosal surface with a 6 mM Cl^− solution. 5-diazoimidazol-4-carboxylic acid n-octyl ester (100 μM) was added first to the mucosal and then the serosal surface of the mounted tissue (FIG. 9).

[9] = test system: CF tissues; conditions: including transepithelial transport in vivo; cited from earlier work
[10] = molecular target: T1, ΔF508 CFTR (Homo sapiens, UniProt P13569, DEL508-508); conditions: cited from earlier work
T1 construct: host or cells: CFPAC and IB3-1 (endogenous mutant CFTR); NIH 3T3 (after expression of the ΔF508 protein)

[11] = 100 μM, serosal-mucosal Cl- gradient

T1 sequence (P13569 with tags, fused parts or gaps DEL508-508): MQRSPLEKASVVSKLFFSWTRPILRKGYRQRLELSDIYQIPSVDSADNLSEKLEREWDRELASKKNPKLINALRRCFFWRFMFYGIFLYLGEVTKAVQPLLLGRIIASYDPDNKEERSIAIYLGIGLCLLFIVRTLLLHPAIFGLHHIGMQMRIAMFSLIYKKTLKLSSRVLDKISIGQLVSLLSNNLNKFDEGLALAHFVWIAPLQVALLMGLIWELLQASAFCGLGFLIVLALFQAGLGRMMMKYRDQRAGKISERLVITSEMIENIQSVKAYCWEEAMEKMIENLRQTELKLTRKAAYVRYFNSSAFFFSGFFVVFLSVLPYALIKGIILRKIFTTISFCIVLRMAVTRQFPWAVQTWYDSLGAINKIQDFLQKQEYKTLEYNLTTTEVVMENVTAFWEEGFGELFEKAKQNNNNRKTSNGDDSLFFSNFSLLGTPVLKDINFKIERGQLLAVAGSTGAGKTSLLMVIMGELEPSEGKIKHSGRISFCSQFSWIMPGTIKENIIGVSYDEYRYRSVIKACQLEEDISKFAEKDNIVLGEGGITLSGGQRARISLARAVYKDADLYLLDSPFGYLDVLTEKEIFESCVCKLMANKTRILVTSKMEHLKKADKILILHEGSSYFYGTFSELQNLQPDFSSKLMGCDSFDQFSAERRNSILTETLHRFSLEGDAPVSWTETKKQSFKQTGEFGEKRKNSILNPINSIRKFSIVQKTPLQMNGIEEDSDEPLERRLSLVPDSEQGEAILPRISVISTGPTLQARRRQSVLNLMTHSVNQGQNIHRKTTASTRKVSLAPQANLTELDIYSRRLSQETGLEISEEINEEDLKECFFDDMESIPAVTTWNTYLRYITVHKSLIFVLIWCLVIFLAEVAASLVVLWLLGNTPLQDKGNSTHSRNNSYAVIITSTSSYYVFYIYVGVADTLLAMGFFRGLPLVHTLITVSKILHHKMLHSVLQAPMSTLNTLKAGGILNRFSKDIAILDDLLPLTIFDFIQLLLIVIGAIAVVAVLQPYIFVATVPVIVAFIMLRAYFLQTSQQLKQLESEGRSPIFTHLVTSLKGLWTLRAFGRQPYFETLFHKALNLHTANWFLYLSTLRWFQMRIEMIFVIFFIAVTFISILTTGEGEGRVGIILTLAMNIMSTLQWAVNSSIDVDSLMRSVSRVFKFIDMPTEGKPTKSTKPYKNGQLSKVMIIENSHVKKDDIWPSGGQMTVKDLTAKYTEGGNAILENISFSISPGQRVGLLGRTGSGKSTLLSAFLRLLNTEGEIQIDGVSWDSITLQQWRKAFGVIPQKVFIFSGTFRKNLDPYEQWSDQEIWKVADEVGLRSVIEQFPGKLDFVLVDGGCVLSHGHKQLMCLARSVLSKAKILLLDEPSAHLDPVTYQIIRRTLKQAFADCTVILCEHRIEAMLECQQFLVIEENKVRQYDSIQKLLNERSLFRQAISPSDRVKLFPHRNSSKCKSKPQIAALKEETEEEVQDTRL

For `CCCCCCCCOC(=O)C1=NC=NC1=[N+]=[N-]` [5-diazoimidazol-4-carboxylic acid n-octyl ester], the “time to activation of Cl- secretion” value ([1]; 20 μm, CF cells) was at most 5 min, the “iodide (anion) efflux” value [1] was “confers a rapid efflux of iodide; also recorded: strongly activated” and the “anion efflux after removal of extracellular Ca2+” value ([1]; extracellular Ca2+ removed) was “does not substantially inhibit anion efflux”. The “iodide (anion) efflux” value [2] was “strongly activated”, the “iodide (anion) efflux” value [3] was “strongly activated” and the proliferation of cells ([4]; at concentrations that activate anion efflux, FIG. 3A) was “allows proliferation of cells”. The “effects on cellular proliferation” value ([4]; cells grown for 7 days at 20 μm) was “minimal effects on cellular proliferation”, the “cellular cAMP” value [5] was “does not increase cellular cAMP” and the “induced ISC in presence of BAPTA AM” value ([6]; BAPTA AM 100 μM, FIG. 7) was “had no effect”. For the same molecule, the “potency and duration of effects relative to UTP and CPX” value ([6]; CFPAC cells) was “more potent and prolonged effects”, the “direction of ISC” value ([6]; Cl- gradient reversed (mucosal-to-serosal)) was “could be reversed” and the ISC response ([6]; Cl- omitted from mucosal and serosal bathing solutions) was “much less pronounced”. For the same molecule, the “ISC effect in presence of acetazolimide” value ([6]; acetazolimide 100 μM) was “did not inhibit the effect”, the ISC response ([6]; added to apical (mucosal) surface, serosal-to-mucosal Cl- gradient) was “strong ISC response” and the ISC response ([6]; added to basolateral (serosal) surface) was “not basolateral”. For the same molecule, the “ISC response in presence of amiloride” value ([6]; amiloride 10 μM on apical surface) was “did not alter this response”, the duration of activity ([6]; compared with UTP, CPX or duramycin, same conditions, FIG. 8) was “of longer duration than other drugs” and the “ISC activation without imposed gradient” value ([6]; symmetrical Ringer's lactate) was “still present”. The “induced ISC in presence of thapsagargin” value ([6]; thapsagargin 0.1 μM, FIG. 7) was “had no effect”, the “ISC on top of maximal forskolin activation” value [7] was “augmented the maximal ISC activation” and the ISC activation ([8]; CFTR knock out (−/−) mice, data not shown) was “ISC activation is also observed”. The ISC activation ([8]; normal mice, 100 μM, mucosal surface) was “activates ISC” and the ISC activation ([8]; ΔF508 CFTR transgenic mice, 100 μM, mucosal surface) was “activates ISC”.
In the case of `Nc1ncnc2c1ncn2[C@@H]1O[C@H](COP(=O)(O)OP(=O)(O)OP(=O)(O)O)[C@@H](O)[C@H]1O` [ATP, adenosine triphosphate], the Cl- secretion [9] is listed as “shown to activate”.
For `CCCn1c(=O)c2[nH]c(C3CCCC3)nc2n(CCC)c1=O` [CPX, reference compound], the “ISC / transepithelial Cl- secretion” value [6, 11] is listed as “did not suggest strong Cl^− secretion; also recorded: do not mediate Cl^− secretion”, the “direction of predominant ISC” value [6, 11] is listed as “opposite to that expected” and the Cl- efflux ([10]; NIH 3T3 cells after expression of the ΔF508 protein) is listed as “could be activated”. For the same molecule, the Cl- efflux ([10]; airway cells derived from a CF patient (IB3-1-cell line)) was “could be activated” and the Cl- efflux ([10]; human CF pancreatic cells (CFPAC-cell line)) was “could be activated”.
In the case of `C[C@H](CCC(=O)O)C[C@H](C)C[C@H](C)C(=O)/C=C(\O)[C@H](C)C[C@H](C)C/C=C/[C@@H](C)[C@@H](O)[C@@H](C)[C@@H](O)C[C@@H]1CC[C@@](C)([C@H]2CC[C@@](C)([C@@H](C)O)O2)O1` [Ionomycin, reference compound], the “iodide (anion) efflux” value [1] is reported as “anticipated stimulation of iodide efflux”.
For `O=c1ccn([C@@H]2O[C@H](COP(=O)(O)OP(=O)(O)OP(=O)(O)O)[C@@H](O)[C@H]2O)c(=O)[nH]1` [UTP, uridine triphosphate, reference compound], the “ISC / transepithelial Cl- secretion” value [6, 11] is listed as “small, transient activation; also recorded: smaller, transient effect” and the Cl- secretion [9] is listed as “shown to activate”.
With duramycin [reference compound] the “ISC / transepithelial Cl- secretion” value ([6]; 5 μm) was “stronger, although transient, activation”.
